Read-outs that look alike come from different tables or passages of the source.
System: NLRP3
Assay: IL-1β secretion assay in PMA-differentiated, LPS/nigericin-stimulated THP-1 cells (384-well, ELISA read-out)
Format: cell-based, human
Conditions: Homo sapiens
How it was run: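 Secreted IL-1β quantified by capture ELISA from supernatants of PMA-differentiated THP-1 cells (30K per well). Sequence: LPS 25 ng/mL priming 2 h, compound 1 h, nigericin 2 h; dose-responses normalized between high (LPS plus 5 μM nigericin) and low (LPS alone) controls.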

[1] = THP-1, IL-1β secretion, PMA-differentiated THP-1 cells, LPS then nigericin stimulation, ELISA read at 450 nm, read-out: Activity
[2] = THP-1, Table 4, IL-1β secretion, LPS/nigericin-stimulated THP-1 cells, read-out: IC50

SMILES	IC50 [1] [nM]	IC50 [2] [nM]
O=C(CN1CC2(CC2)c2cc(Br)ccc2C1=O)Nc1ccc(C(F)F)cn1 [Example 195, 2-(6-bromo-1-oxospiro[3H-isoquinoline-4,1′-cyclopropane]-2-yl)-N-[5-(difluoromethyl)pyridin-2-yl]acetamide]	< 10000	1010
O=C(CN1CC2(CC2)c2cc(Br)ccc2C1=O)Nc1ccc(Cl)cn1 [Example 196, 2-(6-bromo-1-oxospiro[3H-isoquinoline-4,1′-cyclopropane]-2-yl)-N-(5-chloropyridin-2-yl)acetamide]	< 10000	516
O=C(CN1CC2(CC2)c2cc(Br)ccc2C1=O)Nc1ncc2ccccc2n1 [Example 197, 2-(6-bromo-1-oxospiro[3H-isoquinoline-4,1′-cyclopropane]-2-yl)-N-quinazolin-2-ylacetamide]	< 10000	1250
O=C(CN1CC2(CC2)c2cc(Br)ccc2C1=O)Nc1ccc2ccccc2n1 [Example 198, 2-(6-bromo-1-oxospiro[3H-isoquinoline-4,1′-cyclopropane]-2-yl)-N-quinolin-2-ylacetamide]	< 10000	1500
O=C(CN1CC2(CC2)c2cc(Br)ccc2C1=O)Nc1ccc2cccnc2n1 [Example 199, 2-(6-bromo-1-oxospiro[3H-isoquinoline-4,1′-cyclopropane]-2-yl)-N-(1,8-naphthyridin-2-yl)acetamide]	< 10000	1370
O=C(CN1CC2(CC2)c2cc(Br)ccc2C1=O)Nc1ccc2cncn2c1 [Example 201, 2-(6-bromo-1-oxospiro[3H-isoquinoline-4,1′-cyclopropane]-2-yl)-N-imidazo[1,5-a]pyridin-6-ylacetamide]	< 10000	1320
Cc1cnc(NC(=O)CN2CC3(CC3)c3cc(Br)ccc3C2=O)nc1 [Example 202, 2-(6-bromo-1-oxospiro[3H-isoquinoline-4,1′-cyclopropane]-2-yl)-N-(5-methylpyrimidin-2-yl)acetamide]	< 10000	187
CCc1cnc(NC(=O)CN2CC3(CC3)c3cc(Br)ccc3C2=O)nc1 [Example 204, 2-(6-bromo-1-oxospiro[3H-isoquinoline-4,1′-cyclopropane]-2-yl)-N-(5-ethylpyrimidin-2-yl)acetamide]	< 10000	646
O=C(CN1CC2(CC2)c2cc(Br)ccc2C1=O)Nc1nc2ccccc2o1 [Example 205, N-(1,3-benzoxazol-2-yl)-2-(6-bromo-1-oxospiro[3H-isoquinoline-4,1′-cyclopropane]-2-yl)acetamide]	< 10000	306
O=C(CN1CC2(CC2)c2cc(Br)ccc2C1=O)Nc1ccc2cnccc2n1 [Example 206, 2-(6-bromo-1-oxospiro[3H-isoquinoline-4,1′-cyclopropane]-2-yl)-N-(1,6-naphthyridin-2-yl)acetamide]	< 10000	1260
N#Cc1ccc2nc(NC(=O)CN3CC4(CC4)c4cc(Br)ccc4C3=O)oc2c1 [Example 207, 2-(6-bromo-1-oxospiro[3H-isoquinoline-4,1′-cyclopropane]-2-yl)-N-(6-cyano-1,3-benzoxazol-2-yl)acetamide]	< 10000	487
O=C(CN1CC2(CC2)c2cc(Br)ccc2C1=O)Nc1ccc(F)cn1 [Example 208, 2-(6-bromo-1-oxospiro[3H-isoquinoline-4,1′-cyclopropane]-2-yl)-N-(5-fluoropyridin-2-yl)acetamide]	< 10000	709
O=C(CN1CC2(CC2)c2cc(Br)ccc2C1=O)Nc1nc2ncccc2o1 [Example 209, 2-(6-bromo-1-oxo-spiro[3H-isoquinoline-4,1′-cyclopropane]-2-yl)-N-oxazolo[4,5-b]pyridin-2-yl-acetamide]	< 10000	3560
O=C(CN1CC2(CC2)c2cc(Br)ccc2C1=O)Nc1nc2cnccc2o1 [Example 210, 2-(6-bromo-1-oxo-spiro[3H-isoquinoline-4,1′-cyclopropane]-2-yl)-N-oxazolo[4,5-c]pyridin-2-yl-acetamide]	< 10000	822
O=C(CN1CC2(CC2)c2cc(Br)ccc2C1=O)Nc1nc2cccnc2o1 [Example 211, 2-(6-bromo-1-oxo-spiro[3H-isoquinoline-4,1′-cyclopropane]-2-yl)-N-oxazolo[5,4-b]pyridin-2-yl-acetamide]	< 10000	1180
O=C(CN1CC2(CC2)c2cc(Br)ccc2C1=O)Nc1nc2ccncc2o1 [Example 212, 2-(6-bromo-1-oxo-spiro[3H-isoquinoline-4,1′-cyclopropane]-2-yl)-N-oxazolo[5,4-c]pyridin-2-yl-acetamide]	< 10000	589
O=C(CN1CC2(CC2)c2cc(Br)ccc2C1=O)Nc1ncc2c(n1)COC2 [Example 213, 2-(6-bromo-1-oxospiro[3H-isoquinoline-4,1′-cyclopropane]-2-yl)-N-(5,7-dihydrofuro[3,4-d]pyrimidin-2-yl)acetamide]	< 10000	1340
O=C(CN1CC2(CC2)c2cc(Br)ccc2C1=O)Nc1nccc(=O)[nH]1 [Example 214, 2-(6-bromo-1-oxospiro[3H-isoquinoline-4,1′-cyclopropane]-2-yl)-N-(6-oxo-1H-pyrimidin-2-yl)acetamide]	< 10000	7500

SMILES	IC50 [1] [nM]	IC50 [2] [nM]
O=C(CN1CC2(CC2)c2cc(F)ccc2C1=O)Nc1ncc(F)cn1 [Example 215, 2-(6-fluoro-1-oxospiro[3H-isoquinoline-4,1′-cyclopropane]-2-yl)-N-(5-fluoropyrimidin-2-yl)acetamide]	< 10000	6860
Cc1cc(NC(=O)CN2CC3(CC3)c3cc(Br)ccc3C2=O)nc(C)n1 [Example 216, 2-(6-bromo-1-oxospiro[3H-isoquinoline-4,1′-cyclopropane]-2-yl)-N-(2,6-dimethylpyrimidin-4-yl)acetamide]	< 10000	3980
Cc1cnc(NC(=O)CN2CC3(CC3)c3cc(Br)ccc3C2=O)nc1C [Example 217, 2-(6-bromo-1-oxospiro[3H-isoquinoline-4,1′-cyclopropane]-2-yl)-N-(4,5-dimethylpyrimidin-2-yl)acetamide]	< 10000	862
Cn1ncnc1NC(=O)CN1CC2(CC2)c2cc(Br)ccc2C1=O [Example 218, 2-(6-bromo-1-oxospiro[3H-isoquinoline-4,1′-cyclopropane]-2-yl)-N-(2-methyl-1,2,4-triazol-3-yl)acetamide]	< 10000	9180
N#Cc1ccc2oc(NC(=O)CN3CC4(CC4)c4cc(Br)ccc4C3=O)nc2c1 [Example 219, 2-(6-bromo-1-oxospiro[3H-isoquinoline-4,1′-cyclopropane]-2-yl)-N-(5-cyano-1,3-benzoxazol-2-yl)acetamide]	< 10000	1620
N#Cc1cnc(NC(=O)CN2C[C@@]3(C[C@@H]3F)c3c(ccc(C4CC4)c3F)C2=O)nc1 [Example 230, 2-[(2′s,4r)-6-cyclopropyl-2′,5-difluoro-1-oxospiro[3H-isoquinoline-4,1′-cyclopropane]-2-yl]-N-(5-cyanopyrimidin-2-yl)acetamide]	< 10000	51
O=C(CN1C[C@]2(C[C@H]2F)c2cc(C3CC3)ccc2C1=O)Nc1ncc(F)cn1 [Example 231]	< 10000	50
O=C(CN1C[C@]2(C[C@H]2F)c2cc(C3CC3)ccc2C1=O)Nc1ncc(Cl)cn1 [Example 232]	< 10000	28
N#Cc1cnc(NC(=O)CN2C[C@]3(C[C@H]3F)c3cc(C4CC4)ccc3C2=O)nc1 [Example 233]	< 10000	45
O=C(CN1C[C@]2(C[C@H]2F)c2cc(I)ccc2C1=O)Nc1ncc(F)cn1 [Example 246]	< 10000	6
O=C(CN1C[C@]2(C[C@H]2F)c2cc(I)ccc2C1=O)Nc1ncccn1 [Example 247]	< 10000	10
O=C(CN1C[C@]2(C[C@H]2F)c2cc(C3(F)CC3)ccc2C1=O)Nc1ncc(F)cn1 [Example 249]	< 10000	15
O=C(CN1C[C@]2(C[C@H]2F)c2cc(C3(F)CC3)ccc2C1=O)Nc1ncc(Cl)cn1 [Example 250]	< 10000	14
O=C(CN1CC2(CC2)c2cc(C3(F)CC3)ccc2C1=O)Nc1ncc(F)cn1 [Example 255, 2-[6-(1-fluorocyclopropyl)-1-oxospiro[3H-isoquinoline-4,1′-cyclopropane]-2-yl]-N-(5-fluoropyrimidin-2-yl)acetamide]	< 10000	148
O=C(CN1CC2(CC2)c2cc(Br)ccc2C1=O)Nc1ncc(C2CCC2)cn1 [Example 256, 2-(6-bromo-1-oxospiro[3H-isoquinoline-4,1′-cyclopropane]-2-yl)-N-(5-cyclobutylpyrimidin-2-yl)acetamide]	< 10000	395
Cn1cc(-c2cnc(NC(=O)CN3CC4(CC4)c4cc(Br)ccc4C3=O)nc2)cn1 [Example 257, 2-(6-bromo-1-oxospiro[3H-isoquinoline-4,1′-cyclopropane]-2-yl)-N-[5-(1-methylpyrazol-4-yl)pyrimidin-2-yl]acetamide]	< 10000	392
O=C(CN1CC2(CC2)c2cc(Br)ccc2C1=O)Nc1ncc(C2CCOC2)cn1 (stereo not drawn) [Example 258, 2-(6-bromo-1-oxospiro[3H-isoquinoline-4,1′-cyclopropane]-2-yl)-N-[5-(oxolan-3-yl)pyrimidin-2-yl]acetamide]	< 10000	526
Cc1nc(NC(=O)CN2CC3(CC3)c3cc(Br)ccc3C2=O)ncc1C#N [Example 259, 2-(6-bromo-1-oxospiro[3H-isoquinoline-4,1′-cyclopropane]-2-yl)-N-(5-cyano-4-methylpyrimidin-2-yl)acetamide]	< 10000	437
